# Where a SMILES comes first, the peptide text is derived from it.
row,Compound,logP
1,CCC(C(=O)OCc1ccccc1)C(CO)Cc1cncn1C (stereo unspecified),1.97
2,CCOC(=O)C(CC(C)C)NC(=O)CNC(=O)CNC(=O)CCCCSc1ncnc2nc[nH]c12 (stereo unspecified),1.07
3,N#CC(CCN1CCC(C(N)=O)(N2CCCCC2)CC1)(c1ccccc1)c1ccccc1,3.91
4,CCCOc1cc(Cc2cnc(N)nc2N)ccc1OC,1.88
5,CC1OC(OC2C(O)CC(OC3C(O)CC(OC4CCC5(C)C(CCC6C5CCC5(C)C(C7=CC(=O)OC7)C(O)CC65O)C4)OC3C)OC2C)CC(O)C1O (stereo unspecified),1.67
6,COc1cc(Cc2cnc(N)nc2N)ccc1C(C)C,3.14
7,Cc1ncc(CO)c(CO)c1O,-0.77
8,CCOC(=O)c1cccc(O)c1,2.47
9,C=CCC(NC(=O)C(Cc1ccc(OC)cc1)NS(=O)(=O)N1CCOCC1)C(=O)NC(CC1CCCCC1)C(=O)C(F)(F)C(=O)NCCN1CCOCC1 (stereo unspecified),2.73
10,CCCCn1c(=O)[nH]c(=O)c2[nH]cnc21,0.84
11,CCN(CC)C(C)CC(=O)Nc1c(C)cccc1C (stereo unspecified),2.63
12,CCN(CCO)Cc1cccc(COc2ccccc2)c1,3.04
13,C=C(C)OCc1ccccc1,2.41
14,CCCOC(=O)C(C(=O)OCCC)=C1SCCS1,3.35
15,COc1ncnc(NS(=O)(=O)c2ccc(N)cc2)c1OC(C)C,1.03
16,CCOC(=O)CC(NC(=O)CCCCSc1ncnc2nc[nH]c12)C(=O)OCC (stereo unspecified),1.33
17,[O-][n+]1ccc(NO)c2ccccc21,0
18,CCCCCCCCC=CCCCCCCCC(=O)O,7.64
19,Cc1cccc(C)c1NC(=O)CN,0.41
20,C=CCC(NC(=O)C(Cc1ccccc1)NS(=O)(=O)N1CCOCC1)C(=O)NC(CC1CCCCC1)C(=O)C(F)(F)C(=O)NCCN1CCOCC1 (stereo unspecified),3.39
21,CCN1CC(C(O)C(CC2CCCCC2)NC(=O)C(Cc2cnc[nH]2)NC(=O)C(Cc2ccc(OC)cc2)NC(=O)N2CC(OCOC)C(OCOC)C2)OC1=O (stereo unspecified),2.06
22,CC1OC(OC2CCC3(C=O)C4CCC5(C)C(C6=CC(=O)OC6)CCC5(O)C4CCC3(O)C2)C(O)C(O)C1O (stereo unspecified),-0.48

row,Compound,logP
1,O=C1CC(c2ccccc2)c2ccccc2N1 (stereo unspecified),2.79
2,CN(C)CCCCN(Cc1ccc(C(C)(C)C)cc1)c1ccccc1,5.53
3,CCCOc1ccc(Cc2cnc(N)nc2N)cc1OC,2.02
4,C=Cc1ccc(C(=O)O)cc1,2.18
5,C#CC1(O)CCC2C3CCc4cc(O)ccc4C3C(CC)CC21C (stereo unspecified),4.28
6,COc1cc(S(C)=O)ccc1-c1nc2ncccc2[nH]1 (stereo unspecified),1.18
7,CCCCCc1cc(O)c2c(c1)OC(C)(C)C1CC=C(C)CC21 (stereo unspecified),7.41
8,CCOC(=O)CNC(=O)CCCCSc1ncnc2nc[nH]c12,0.91
9,C=C1C(=O)OC2C=C(C)C3(O)C=CC(C)(CC(OC(=O)C(=CC)COC(C)=O)C12)O3 (stereo unspecified),1.19
10,COC(=O)C(C(=O)OC)=C1SCCS1,1.51
11,CC1OC(OC2C(O)CC(OC3C(O)CC(OC4CCC5(C)C(CCC6C5CC(O)C5(C)C(C7COC(=O)C7)CCC65O)C4)OC3C)OC2C)CC(O)C1O (stereo unspecified),1.36
12,COc1ccc(C(O)(Cn2ccnc2)c2ccc(-c3ccncc3)cc2)cc1 (stereo unspecified),3.55
13,NC(=O)c1ccccc1OCc1ccc([N+](=O)[O-])cc1,1.73
14,CC(C)C(=O)OCC1OC(n2cc(I)c(=O)[nH]c2=O)C1O (stereo unspecified),0.83
15,CCCCc1ccc(O)cc1,3.65
16,CNC(=O)c1cc(Br)cc(C)c1O,3.51
17,Cc1cn([C@H]2C=C[C@@H](CO)O2)c(=O)[nH]c1=O,-0.72
18,CCCCCCCCC(C)(C)c1ccc(C2CCCC(O)C2)c(O)c1 (stereo unspecified),8.16
19,CCC1OC(=O)C(C)C(OC2CC(C)(OC)C(OC(C)=O)C(C)O2)C(C)C(OC2OC(C)CC(N(C)C)C2O)C(C)(O)CC(C)C(=O)C(C)C(O)C1C (stereo unspecified),3.23
20,O=C1NC(=O)C(c2ccccc2)C(=O)N1,-0.17
21,Nc1ccn(C2OC(CCl)C(O)C2O)c(=O)n1 (stereo unspecified),-1.05
22,CCCCNC(=O)NCCNCC(O)COc1ccc(-c2ncc(C)[nH]2)cc1 (stereo unspecified),1.24

row,Compound,logP
1,CCCOC(=O)c1ccccc1Cl,3.45
2,O=C(COc1ccc(OCCNCC(O)COc2ccccc2)cc1)N1CCCCC1 (stereo unspecified),2.6
3,CCN(CC)CCCN(C(=O)Cc1ccccc1)c1c(C)cccc1C,4.94
4,C#CC1(O)C(F)CC2C3CCc4cc(O)ccc4C3C(OC)CC21C (stereo unspecified),2.87
5,CCCCOC(=O)COc1cc(Cl)c(Cl)cc1Cl,4.81
6,Cc1cccc(C)c1NC(=O)CCCCN,1.02
7,CC1(C)CC(N)CC(C)(C)N1O,0.56
8,CCCC(=O)OCC(=O)C1(O)CCC2C3CCC4=CC(=O)CCC4(C)C3C(O)CC21C (stereo unspecified),2.91
9,C=C1C(=O)OC2C1C(OC(=O)C=C(C)C)CC1=CC(CC3(C)OC23)OC1=O (stereo unspecified),1.05
10,CCCCCCCCOC(=O)c1cc(=O)[nH]c(=O)[nH]1,2.6
11,CCCCCCCC1CC(C(=O)Nc2c(C(C)C)cccc2C(C)C)C(=O)O1 (stereo unspecified),4.72
12,COc1ccc(CCOC(=O)C(N)Cc2ccc(O)c(O)c2)cc1 (stereo unspecified),1.69
13,ClC1=C(Cl)C2(Cl)C3C4OC4C(Cl)C3C1(Cl)C2(Cl)Cl (stereo unspecified),4.98
14,c1ccc2cc3cc4ccccc4cc3cc2c1,5.76
15,CCN1CC(C(O)C(CC2CCCCC2)NC(=O)C(Cc2cnc[nH]2)NC(=O)C(Cc2ccc(OC)cc2)NC(=O)N(C)CC(O)CO)OC1=O (stereo unspecified),1.42
16,CC(=O)NCC(=O)N[C@H](C(N)=O)C(C)C (Ac-Gly-Val-NH2),-1.33
17,Cc1ncsc1CCCl,2.12
18,CNC(=O)OCc1c2c(n3c1C(OC(C)=O)CC3)C(=O)C=C(N1CCCC1)C2=O (stereo unspecified),1.4
19,NNC(=O)c1ccnc(I)c1,0.52
20,Cn1nnnc1SCC1=C(C(=O)OCOC(=O)C(C)(C)C)N2C(=O)C(NC(=O)C(O)c3ccccc3)C2SC1 (stereo unspecified),0.85
21,CCCCCCCCCCOc1ccc(C(=O)O)cc1,6.29
22,O=C(c1ccc(-c2ccccc2)cc1)c1ccc2n1CCC2C(=O)O (stereo unspecified),4.27

row,Compound,logP
1,CC(C(N)=O)n1nnc2ccccc21 (stereo unspecified),0.35
2,O=C1C2C3C=CC(C4C=CC43)C2C(=O)N1CCCCN1CCN(c2ncccn2)CC1 (stereo unspecified),1.79
3,CN(Cc1ccc(Cl)cc1)N=Nc1ccc(C(=O)O)cc1,4.85
4,O=C(COc1ccc(OCCNCC(O)COc2ccccc2)cc1)NCCCO (stereo unspecified),0.5
5,CC(CC(=O)O)CC(=O)c1ccc(-c2ccccc2)cc1 (stereo unspecified),3.82
6,CCCCCC(=O)OCC(Cc1cncn1C)C(CC)C(=O)OCc1ccccc1 (stereo unspecified),4.75
7,CNC(C)C(OC)c1ccccc1 (stereo unspecified),2.05
8,CCCC(=O)OCC(Cc1cncn1C)C(CC)C(=O)OCc1ccccc1 (stereo unspecified),3.78
9,CCCCn1c(=O)n(C)c(=O)c2[nH]cnc21,1.29
10,CCCCCc1cc(O)c2c(c1)OC(C)(C)[C@@H]1CCC(CO)=C[C@@H]21,5.33
11,CN1CC=C(c2cccs2)CC1,2.51
12,COc1ccc(CCNCC(O)COc2ccc(-c3ncc(Cl)[nH]3)cc2)cc1OC (stereo unspecified),2.4
13,CCC(C)CC,3.6
14,Clc1ccc(Br)cc1NC1=NCCN1,2.05
15,COc1ccc(C(=O)OCC2OC(n3cnc4c(OC)ncnc43)C2OC(=O)c2ccc(OC)cc2)cc1 (stereo unspecified),3.65
16,OCc1cc(Br)ccc1O,1.72
17,CN(C)N=Nc1ccc(C(=O)O)cc1,2.33
18,OC(CNCCc1ccncc1)COc1ccc(-c2ncc(-c3cccs3)[nH]2)cc1 (stereo unspecified),2.25
19,O=C1CCC(c2ccccc2)CC1,2.3
20,CCCN1C(=O)SC(=Cc2ccc([N+](=O)[O-])o2)C1=O,2.4
21,Cc1ccc(C)c(O)c1C,2.67
22,CCOC(=O)c1ccc(S(N)(=O)=O)cc1,1.17

row,Compound,logP
1,COC(=O)C=COc1ccccc1Cl,3.02
2,CCCCCCCOC1OC(CO)C(O)C(O)C1O (stereo unspecified),0.73
3,Nc1cccc(I)c1,2.86
4,CCCNC(=O)COc1ccc(OCCNCC(O)COc2ccccc2)cc1 (stereo unspecified),2.4
5,C=CCC(NC(=O)C(Cc1ccccc1)NS(=O)(=O)N1CCOCC1)C(=O)NC(COC(F)(F)C(=O)NCCN1CCOCC1)CC1CCCCC1 (stereo unspecified),3.17
6,Cc1cccc(C)c1OC(=O)c1ccc(N)cc1O,3.88
7,Nc1nc(-c2ccccn2)cc2ccccc12,2.74
8,CC(C)CCOC(=O)c1ccccc1,4.15
9,Cc1ccc(C(O)(Cn2ccnc2)c2ccc(Br)cc2)cc1 (stereo unspecified),3.55
10,CCCCCCc1ccc(CC(=O)O)cc1,4.25
11,CC(=O)OCCCN1C(=O)C(OC(C)=O)N=C(c2ccccc2)c2cc(Cl)ccc21 (stereo unspecified),3.08
12,O=C(O)C1CCc2cc(Cl)ccc2O1 (stereo unspecified),2.4
13,CN(C)[C@@H]1C(O)=C(C(N)=O)C(=O)[C@@]2(O)C(O)=C3C(=O)c4c(O)ccc(Cl)c4[C@@](C)(O)[C@H]3C[C@@H]12,-0.62
14,CC1=C(C(=O)Nc2ccccc2-c2ccccc2)SCCO1,2.54
15,CCN(CC)CCNC(=O)c1cc(Br)c(N)cc1OC,2.83
16,CCCCCCCCCCCCCCCCCC(=O)O,8.23
17,O=C(O)C=COc1ccccc1Cl,2.69
18,COC(=O)/C=C/Oc1ccccc1,2.68
19,COc1ccc(N2Cn3c(nc4ccccc4c3=O)C2C)cc1 (stereo unspecified),1.73
20,CCNc1ccc(C(=O)OCCN(C)C)cc1,2.62
21,O=C(O)c1ccc(O)c(Cl)c1,2.41
22,Cc1cnc([N+](=O)[O-])n1CCO,0.18

row,Compound,logP
1,Oc1cc2ccccc2cc1O,2.24
2,Cc1ccc(N(C)C)cc1,2.81
3,COC(=O)CCC(C)=O,-0.13
4,CCCCCCCc1ccncc1,5
5,CC1c2nc3ccccc3c(=O)n2CN1Cc1ccccc1 (stereo unspecified),1.72
6,CCCc1ccc(CC(=O)O)cc1,3
7,O=C(O)Cc1ccc2c(c1)C(=O)c1ccccc1CS2,2.97
8,COc1ccc(C(=O)CC(C)CC(=O)O)cc1Cl (stereo unspecified),2.6
9,CC(=O)c1ccc(S(=O)(=O)NC(=O)NC2CCCCC2)cc1,2.44
10,Cc1ccc(N(CCO)CCO)cc1,1.09
11,CCc1cccc2ccccc12,4.4
12,CNCCc1ccccc1,1.91
13,Cc1ccccc1NC1=NCCN1,1.28
14,c1ccc2c(c1)Cc1c-2ccc2ccccc12,5.4
15,CC(C)OC(=O)[C@@H](N)Cc1ccc(O)c(O)c1,0.57
16,CNC(=O)COc1cccc(OCC(O)CNC(C)C)c1 (stereo unspecified),0.35
17,C=C(C)C(=O)OCC(CC)CCCC (stereo unspecified),4.54
18,CCNC(=O)c1cc(Br)cc(C)c1O,3.61
19,O=C(Cn1ccnc1[N+](=O)[O-])NCC(O)CO (stereo unspecified),-1.85
20,COc1ccc(CCNCC(O)COc2ccc(-c3nc(C(C)=O)c(C)[nH]3)cc2)cc1OC (stereo unspecified),2.14
21,O=[N+]([O-])c1ccc(O)cc1O,1.05

# — the OPERA property sets (Mansouri et al. 2018)
